According to patent US20060128792A1, “Deguelin as a chemopreventive agent for lung cancer” (priority 2002, published 2006):
pIC50: −log10 of the molar value. “And” between values parts separate entries of the source, which are not always exact repeats. Equal values may be shown once.

What was measured:
Format in all cases: cell-based
H226Br = assay: MTT assay, growth inhibition by deguelin or deguelin derivatives; conditions: 3 days
A549 = assay: as above; conditions: A549, 3 days
H358 = assay: as above; conditions: H358, 3 days
H226B = assay: as above; conditions: 3 days
HUVEC cells = assay: HUVEC proliferation, MTT assay; conditions: 0.1, 1 and 10 μM, 3 days
Procedure: FIGS. 9A-9D.—Anti-angiogenic activity of deguelin. (FIG. 9A) CAMs after incubation with Thermanox coverslips containing vehicle (Con), deguelin ([…]) or RA (1 μg) as a positive control or for 48 h (circle indicate the placement of coverslip). (FIG. 9B) The anti-angiogenic effect of deguelin was evaluated by calculating the percentage of positive eggs. □ empty coverslip as control; ▪ RA 1 μg/egg; ▪ deguelin 1 or 5 nmole/egg. Each value represents the mean±SE. (FIG. 9C) Appearance of matrigel from mice. The effects of deguelin on bFGF-induced angiogenesis in vivo was analyzed by matrigel plug assay using nude mouse. Matrigel alone (Con)—negative control, 100 ng/ml bFGF and 72 units/ml heparin in a vehicle of 0.1% BSA/PBS (bFGF)—positive control, 5 niole deguelin alone, and 5 nmole deguelin plus bFGF were included. (FIG. 9D) Proliferation of HUVEC cells treated with indicated doses of deguelin for 3 days was analyzed by MTT assay. Bars, means±SD of a representative experiment done in triplicate from five independently performed experiments for each cell line.
Inhibition of angiogenesis by deguelin was also evaluated using the Matrigel™ plug assay, an established in vivo angiogenesis model, using nude mice. […]

H661 = assay: MTT assay, growth inhibition by deguelin or deguelin derivatives; conditions: 3 days
1799 cells = assay: MTT assay, viability of 1799 cells (also after Ad5CMV-MyrAkt-HA infection)
Text: (§1) Cells and Cell Cultures. […] Tumors developed 6 months later. […] (Klein-Szanto et al., 1992).

[1] = system: cell line not named (Table 1); assay: MTT assay, growth inhibition by deguelin; conditions: 3 days
[2] = system: breast, prostate, head & neck and ovarian cancer cells; assay: MTT assay, growth inhibition in other cancer cells; conditions: 10^−9 M to 10^−6 M, 3 or 5 days; more effective at 10^−7 M to 10^−6 M
Procedure: It was next determined whether deguelin can inhibit cell growth in cancer cells other than lung cancer cells. Cancer cells, such as breast, prostate, head & neck and ovarian cells were treated with 10^−6 M, 10^−7 M, 10^−8 M, or 10^−9 M deguelin for 3 or 5 days, and cell growth inhibition analyzed by MTT assay.

Chago = assay: MTT assay, growth inhibition by deguelin or deguelin derivatives; conditions: 3 days
[3] = system: premalignant (1799, 1198) and malignant (1170) HBE cell lines; assay: MTT assay, growth of premalignant and malignant HBE cell lines; conditions: HBE, 72 h, read-out: IC50, growth of premalignant and malignant HBE cell lines
Text: as §1

Compound: COc1cc2c(cc1OC)[C@@H]1C(=O)c3ccc4c(c3O[C@@H]1CO2)C=CC(C)(C)O4 [Deguelin]
- Av. % con (H226Br; deguelin 10^−6M): 0.82 % con
- MTT value, mean of replicates (unheaded line) (H226Br; deguelin 10^−6M): 0.266
- MTT value, replicate (unheaded line) (H226Br; deguelin 10^−6M): 0.264 (2×) and 0.271
- Av. % con (H226Br; deguelin 10^−8M): 0.85 % con
- MTT value, mean of replicates (unheaded line) (H226Br; deguelin 10^−8M): 0.276
- MTT value, replicate (unheaded line) (H226Br; deguelin 10^−8M): 0.296 and 0.273 and 0.259
- Av. % con (H226Br; deguelin 10^−10M): 1.02 % con
- MTT value, mean of replicates (unheaded line) (H226Br; deguelin 10^−10M): 0.330
- MTT value, replicate (unheaded line) (H226Br; deguelin 10^−10M): 0.321 and 0.329 and 0.34
- Av. % con (H226Br; deguelin 10^−12M): 0.96 % con
- MTT value, mean of replicates (unheaded line) (H226Br; deguelin 10^−12M): 0.310
- MTT value, replicate (unheaded line) (H226Br; deguelin 10^−12M): 0.3 and 0.318 and 0.313
- Avg. % con (A549; deguelin 10^−6M): 0.13 % con
- MTT value, mean of replicates (unheaded line) (A549; deguelin 10^−6M): 0.060
- MTT value, replicate (unheaded line) (A549; deguelin 10^−6M): 0.057 (2×) and 0.066
- Avg. % con (A549; deguelin 10^−8M): 0.83 % con
- MTT value, mean of replicates (unheaded line) (A549; deguelin 10^−8M): 0.382
- MTT value, replicate (unheaded line) (A549; deguelin 10^−8M): 0.381 (2×) and 0.385
- Avg. % con (A549; deguelin 10^−10M): 0.88 % con
- MTT value, mean of replicates (unheaded line) (A549; deguelin 10^−10M): 0.408
- MTT value, replicate (unheaded line) (A549; deguelin 10^−10M): 0.375 and 0.422 and 0.427
- Avg. % con (A549; deguelin 10^−12M): 0.89 % con
- MTT value, mean of replicates (unheaded line) (A549; deguelin 10^−12M): 0.411
- MTT value, replicate (unheaded line) (A549; deguelin 10^−12M): 0.416 and 0.404 and 0.412
- Avg. % con (H358; deguelin 10^−6M): 0.68 % con
- MTT value, mean of replicates (unheaded line) (H358; deguelin 10^−6M): 0.111
- MTT value, replicate (unheaded line) (H358; deguelin 10^−6M): 0.108 and 0.113 and 0.112
- Avg. % con (H358; deguelin 10^−8M): 0.74 % con
- MTT value, mean of replicates (unheaded line) (H358; deguelin 10^−8M): 0.122
- MTT value, replicate (unheaded line) (H358; deguelin 10^−8M): 0.114 and 0.128 and 0.125
- Avg. % con (H358; deguelin 10^−10M): 0.79 % con
- MTT value, mean of replicates (unheaded line) (H358; deguelin 10^−10M): 0.129
- MTT value, replicate (unheaded line) (H358; deguelin 10^−10M): 0.122 and 0.12 and 0.146
- Avg. % con (H358; deguelin 10^−12M): 0.87 % con
- MTT value, mean of replicates (unheaded line) (H358; deguelin 10^−12M): 0.143
- MTT value, replicate (unheaded line) (H358; deguelin 10^−12M): 0.148 and 0.143 and 0.139
- Avg. % con (H226B; deguelin 10^−6M): 0.34 % con
- MTT value, mean of replicates (unheaded line) (H226B; deguelin 10^−6M): 0.113
- MTT value, replicate (unheaded line) (H226B; deguelin 10^−6M): 0.117 (2×) and 0.106
- Avg. % con (H226B; deguelin 10^−8M): 0.46 % con
- MTT value, mean of replicates (unheaded line) (H226B; deguelin 10^−8M): 0.150
- MTT value, replicate (unheaded line) (H226B; deguelin 10^−8M): 0.153 and 0.147 and 0.149
- Avg. % con (H226B; deguelin 10^−10M): 0.86 % con
- MTT value, mean of replicates (unheaded line) (H226B; deguelin 10^−10M): 0.283
- MTT value, replicate (unheaded line) (H226B; deguelin 10^−10M): 0.295 and 0.282 and 0.272
- Avg. % con (H226B; deguelin 10^−12M): 0.91 % con
- MTT value, mean of replicates (unheaded line) (H226B; deguelin 10^−12M): 0.299
- MTT value, replicate (unheaded line) (H226B; deguelin 10^−12M): 0.274 and 0.32 and 0.304
- proliferation of HUVEC cells (HUVEC cells): Inhibition of cell proliferation was observed
- Avg. % con (H661; deguelin 10^−6M): 0.5756 % con
- MTT value, mean of replicates (unheaded line) (H661; deguelin 10^−6M): 0.0597
- MTT value, replicate (unheaded line) (H661; deguelin 10^−6M): 0.059 and 0.055 and 0.065
- Avg. % con (H661; deguelin 10^−8M): 0.60 % con
- MTT value, mean of replicates (unheaded line) (H661; deguelin 10^−8M): 0.063
- MTT value, replicate (unheaded line) (H661; deguelin 10^−8M): 0.062 and 0.056 and 0.07
- Avg. % con (H661; deguelin 10^−10M): 0.80 % con
- MTT value, mean of replicates (unheaded line) (H661; deguelin 10^−10M): 0.083
- MTT value, replicate (unheaded line) (H661; deguelin 10^−10M): 0.087 and 0.093 and 0.07
- Avg. % con (H661; deguelin 10^−12M): 0.86 % con
- MTT value, mean of replicates (unheaded line) (H661; deguelin 10^−12M): 0.089
- MTT value, replicate (unheaded line) (H661; deguelin 10^−12M): 0.09 and 0.084 and 0.094
- viable number of 1799 cells (1799 cells; 1 day, concentration as low as 10^−9 M): reduced
- viability at 0.1 µM (1799 cells; 48 h, 10^−7 M deguelin, 2 days, read-out: viable cells, 1799 cells infected with 5×10^3 particles/cell Ad5CMV-Myr.Akt.HA): > 80%
- Avg. % con ([1]; deguelin 10^−6M): 0.82 % con
- MTT value, mean of replicates (unheaded line) ([1]; deguelin 10^−6M): 0.304
- MTT value, replicate (unheaded line) ([1]; deguelin 10^−6M): 0.306 (2×) and 0.299 and 0.305
- Avg. % con ([1]; deguelin 10^−8M): 0.78 % con
- MTT value, mean of replicates (unheaded line) ([1]; deguelin 10^−8M): 0.2908
- MTT value, replicate (unheaded line) ([1]; deguelin 10^−8M): 0.288 and 0.291 and 0.283 and 0.301
- Avg. % con ([1]; deguelin 10^−10M): 0.90 % con
- MTT value, mean of replicates (unheaded line) ([1]; deguelin 10^−10M): 0.3348
- MTT value, replicate (unheaded line) ([1]; deguelin 10^−10M): 0.337 and 0.327 and 0.343 and 0.332
- Avg. % con ([1]; deguelin 10^−12M): 1.01 % con
- MTT value, mean of replicates (unheaded line) ([1]; deguelin 10^−12M): 0.3768
- MTT value, replicate (unheaded line) ([1]; deguelin 10^−12M): 0.392 and 0.386 and 0.367 and 0.362
- cell proliferation in breast, prostate, head & neck and ovarian cancer cells [2]: inhibit cell proliferation in these cells in a dose dependent manner
- Avg. % con (Chago; deguelin 10^−6M): 0.56 % con
- MTT value, mean of replicates (unheaded line) (Chago; deguelin 10^−6M): 0.086
- MTT value, replicate (unheaded line) (Chago; deguelin 10^−6M): 0.094 and 0.086 and 0.078
- Avg. % con (Chago; deguelin 10^−8M): 0.65 % con
- MTT value, mean of replicates (unheaded line) (Chago; deguelin 10^−8M): 0.1
- MTT value, replicate (unheaded line) (Chago; deguelin 10^−8M): 0.101 and 0.093 and 0.106
- Avg. % con (Chago; deguelin 10^−10M): 1.24 % con
- MTT value, mean of replicates (unheaded line) (Chago; deguelin 10^−10M): 0.191
- MTT value, replicate (unheaded line) (Chago; deguelin 10^−10M): 0.192 and 0.184 and 0.197
- Avg. % con (Chago; deguelin 10^−12M): 1.18 % con
- MTT value, mean of replicates (unheaded line) (Chago; deguelin 10^−12M): 0.182
- MTT value, replicate (unheaded line) (Chago; deguelin 10^−12M): 0.175 and 0.179 and 0.192
- pIC50 [3]: > 9.00
